Test results reported in ChEMBL document CHEMBL2218064, “Structure-activity relationship data for chemical series of antagonists of the P2X7 receptor (Supplementary Bioactivity Data for publication CHEMBL1157114)”.

Molecular target: T1, P2X purinoceptor 7 (Homo sapiens, UniProt Q99572)
T1 sequence (Q99572 whole entry): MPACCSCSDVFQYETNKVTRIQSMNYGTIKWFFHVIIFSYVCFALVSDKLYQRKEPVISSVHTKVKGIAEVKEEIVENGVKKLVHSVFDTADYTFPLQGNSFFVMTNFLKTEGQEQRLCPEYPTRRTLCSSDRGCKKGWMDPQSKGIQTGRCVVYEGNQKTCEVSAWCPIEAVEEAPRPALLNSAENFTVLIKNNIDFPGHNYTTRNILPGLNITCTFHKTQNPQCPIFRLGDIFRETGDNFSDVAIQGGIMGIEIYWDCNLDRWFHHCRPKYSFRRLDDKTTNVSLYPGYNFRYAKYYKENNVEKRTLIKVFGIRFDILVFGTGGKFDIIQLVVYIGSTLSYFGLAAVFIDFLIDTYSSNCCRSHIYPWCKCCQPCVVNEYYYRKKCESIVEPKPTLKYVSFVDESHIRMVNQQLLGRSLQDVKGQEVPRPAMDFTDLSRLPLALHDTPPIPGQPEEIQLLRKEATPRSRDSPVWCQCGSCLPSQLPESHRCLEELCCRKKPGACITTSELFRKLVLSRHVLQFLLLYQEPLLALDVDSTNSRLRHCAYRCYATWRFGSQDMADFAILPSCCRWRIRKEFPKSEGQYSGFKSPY
Assay: SUPPLEMENTARY: Inhibition of human P2X7 receptor assessed as inhibition of ethidium bromide accumulation. Same assay as CHEMBL1103860

Compound | IC50 [nM]
O=C(c1ccc(F)cc1Cl)N1CCn2c(nnc2-c2cccc3cccnc23)C1 | 251
Cc1c(CNC(=O)[C@@H]2CN(C)C(=O)N2C)cccc1C(F)(F)F | 1.26
CCN1C(=O)NC[C@H]1C(=O)NCc1cccc(C(F)(F)F)c1Cl | 3.98
CN1C(=O)NC[C@H]1C(=O)NCc1cccc(C(F)(F)F)c1F | 39.8
Cn1cccc1-c1nnc2n1CCN(C(=O)c1cccc(Cl)c1Cl)C2 | 12.6
O=C(c1cccc(C(F)(F)F)c1Cl)N1CCn2c(nnc2C2CC2)C1 | 31.6
C[C@@H]1CN(Cc2ccc(Cl)cc2Cl)C(=O)C(=O)N1c1ccccc1 | 25.1
Cc1ccccc1N1CCN(C(=O)c2cccc(C(F)(F)F)c2Cl)CC1=O | 10
CN1C(=O)N(CC(F)F)C[C@H]1C(=O)NCc1ccc(Cl)cc1Cl | 2.51
O=C(NCc1ccc(F)cc1Cl)C1CCC(=O)N1C1CC1 (configuration not stated) | 20
Cn1nccc1CC(=O)NCc1ccc(F)cc1Cl | 251
COc1cccc(N2CCN(Cc3ccc(F)cc3Cl)C(=O)C2=O)c1Cl | 25.1
Cc1c(N2CCOCC2)cccc1N1CCN(C(=O)c2c(Cl)cc(Cl)cc2Cl)CC1=O | 39.8
COc1c(F)cccc1N1CCN(Cc2ccc(F)cc2Cl)C(=O)C1=O | 79.4
CN1C(=O)N(c2ccccn2)C[C@H]1C(=O)NCc1cccc(C(F)(F)F)c1Cl | 6.31
CCCN1CCN(C(=O)c2cccc(C(F)(F)F)c2Cl)CC1=O | 50.1
CCN1C(=O)N(C)C[C@H]1C(=O)NCc1ccc(F)cc1Cl | 7.94
O=C(c1ccc(F)cc1Cl)N1CCn2c(nnc2-c2cccc3cc[nH]c23)C1 | 31.6
Cc1cc(C)cc(N2CCN(Cc3ccc(F)cc3Cl)C(=O)C2=O)c1 | 1000
O=C(NCc1ccc(F)cc1Cl)C1COCC(=O)N1Cc1ccccc1 (configuration not stated) | 501
O=C(c1ccc(F)cc1Cl)N1CCn2c(nnc2-c2cnc(Cl)cn2)C1 | 200
CN1C(=O)N(c2cccnc2C#N)C[C@H]1C(=O)NCc1ccc(Cl)cc1Cl | 31.6
O=C(c1ccccc1Cl)N1CCn2c(nnc2-c2cnccn2)C1 | 20
Cc1ccc(N2CCOCC2)cc1N1CCN(Cc2ccc(F)cc2Cl)C(=O)C1=O | 31.6
CCN1[C@H](C(=O)NCc2cccc(C(F)(F)F)c2Cl)CCS1(=O)=O | 10
CN1C(=O)CC[C@H]1C(=O)NCc1ccc(Cl)cc1Cl | 12.6

Compound | IC50 [nM]
Cc1cn2c(n1)CN(C(=O)c1cccc(C(F)(F)F)c1Cl)CC2 | 126
CCN1C(=O)CC[C@H]1C(=O)NCc1cccc(F)c1F | 398
O=C(c1ccccc1Cl)N1CCn2c(-c3ccccc3)cnc2C1 | 50.1
O=C(NCc1ccc(Cl)cc1Cl)C1CC(=O)N(Cc2ccccc2)C1 (configuration not stated) | 158
Cc1cccc(C)c1N1CCN(Cc2cccc(C(F)(F)F)c2Cl)C(=O)C1=O | 6.31
Cc1ccccc1N1CCN(C(=O)c2cccc(Cl)c2Cl)CC1=O | 15.8
COCCNCCn1nc(C)c(CC(=O)NCc2ccc(F)cc2Cl)c1C | 126
O=C(c1ccc(Cl)cc1Cl)N1CCn2c(Br)nnc2C1 | 200
CC(C)N1C(=O)CC[C@H]1C(=O)NCc1ccc(F)c(Cl)c1Cl | 5.01
O=C(c1cccc(C(F)(F)F)c1Cl)N1CCn2c(-c3nccs3)cnc2C1 | 1.58
O=C(c1cccc(C(F)(F)F)c1Cl)N1CCN(c2ccc(F)cc2Cl)C(=O)C1 | 15.8
CN1C(=O)OC[C@@H]1C(=O)NCc1cccc(C(F)(F)F)c1Cl | 50.1
Cc1cnn(C)c1CC(=O)NCc1ccc(F)c(F)c1Cl | 31.6
O=C(c1ccc(Cl)c(Cl)c1)N1CCn2c(nnc2-c2cnccn2)C1 | 31.6
CC(C)CN1[C@H](C(=O)NCc2ccc(F)cc2Cl)CCS1(=O)=O | 501
Cn1ccc(-c2nnc3n2CCN(C(=O)c2cccc(Cl)c2Cl)C3)n1 | 6.31
Cc1cnn(CC(F)(F)F)c1CC(=O)NCc1ccc(F)c(F)c1Cl | 50.1
CCN1C(=O)CC[C@@H]1C(=O)NCc1cccc(C(F)(F)F)c1F | 158
Cn1nccc1-c1nnc2n1CCN(C(=O)c1cccc(Cl)c1Cl)C2 | 25.1
Cc1nn(-c2ccccc2)c(C)c1CC(=O)NCc1ccc(F)c(F)c1 | 251
O=C(c1cccc(C(F)(F)F)c1Cl)N1CCn2c(I)cnc2C1 | 3.98
Cc1nn(CCN2CCCCC2)c(C)c1CC(=O)NCc1ccc(F)cc1Cl | 50.1
CN1C(=O)N(c2ncc(F)cn2)C[C@H]1C(=O)NCc1ccc(Cl)cc1Cl | 3.98
O=C(NCc1cccc(C(F)(F)F)c1Cl)[C@H]1CCC(=O)N1Cc1ccccc1 | 31.6
Cc1cc(Br)ccc1N1CCN(Cc2ccc(F)cc2Cl)C(=O)C1=O | 79.4
CC(C)N1[C@H](C(=O)NCc2ccc(Cl)cc2Cl)CCS1(=O)=O | 50.1

More lines, in order of falling IC50, values ahead:

IC50 [nM] | Compound
1000 | Cc1ccccc1N1CCN(Cc2ccccc2F)C(=O)C1=O
631 | Cc1ccccc1-n1cc(CC(=O)NCc2ccc(F)cc2Cl)cn1
631 | CCN1C(=O)CC[C@H]1C(=O)NCc1ccccc1C#N
501 | O=C(NCc1ccc(F)cc1Cl)C1CC(=O)N(C2CC2)C1 (configuration not stated)
316 | O=C(c1cccc(C(F)(F)F)c1Cl)N1CCn2cc(-c3ccccc3)nc2C1
251 | COc1ncccc1-n1nc(C)c(CC(=O)NCc2ccc(F)cc2Cl)c1C
251 | CCN1[C@H](C(=O)NCc2ccc(F)c(F)c2F)CCS1(=O)=O
251 | CN1C(=O)CC[C@@H]1C(=O)NCc1ccc(F)cc1C(F)(F)F
200 | CCN1C(=O)CC[C@@H]1C(=O)NCc1ccc(F)cc1C(F)(F)F
200 | O=C1C(=O)N(c2cccc(Cl)c2Cl)CCN1Cc1ccccc1Cl
158 | CCN1C(=O)CC[C@H]1C(=O)NCc1ccc(F)c(F)c1F
158 | Cc1nn(-c2ccccc2)c(C)c1CC(=O)NCc1ccc(F)cc1C(F)(F)F
158 | Cc1nn(-c2ccccc2)c(C)c1CC(=O)NCc1ccc(Cl)c(Cl)c1
158 | O=C(c1ccccc1Cl)N1CCn2c(nnc2-c2ccncn2)C1
158 | CN1C(=O)NC[C@H]1C(=O)NCc1ccc(Cl)c(C(F)(F)F)c1
126 | CCN1CCN(C(=O)c2cccc(C(F)(F)F)c2Cl)CC1=O
100 | Cn1ncc(F)c1CC(=O)NCc1ccc(F)c(F)c1Cl
100 | Cc1nn(-c2ccccc2Cl)c(C)c1CC(=O)NCc1ccc(F)cc1Cl
79.4 | COc1ccc(Br)cc1N1CCN(Cc2ccc(F)cc2Cl)C(=O)C1=O
63.1 | Cc1nn(CCO)c(C)c1CC(=O)NCc1cccc(Cl)c1C
50.1 | CN1C(=O)N(c2cncnc2)C[C@H]1C(=O)NCc1ccc(Cl)cc1Cl
50.1 | CN1C[C@@H](C(=O)NCc2ccc(F)c(C(F)(F)F)c2)N(C)C1=O
39.8 | CN1C(=O)NC[C@H]1C(=O)NCc1ccc(F)cc1Cl
39.8 | O=C(c1ccc(F)cc1Cl)N1CCn2c(nnc2-c2cccc(F)c2F)C1
39.8 | O=C(c1cccc(C(F)(F)F)c1Cl)N1CCn2cc(C(F)(F)F)nc2C1

IC50 [nM] | Compound
39.8 | CCN1C(=O)NC[C@H]1C(=O)NCc1ccc(F)cc1Cl
39.8 | CCN1C(=O)CC[C@H]1C(=O)NCc1ccc(Br)cc1F
39.8 | Cc1ncccc1N1C[C@@H](C(=O)NCc2cccc(Cl)c2Cl)N(C)C1=O
31.6 | CN1C(=O)N(c2nccc(C(F)(F)F)n2)C[C@H]1C(=O)NCc1ccc(Cl)cc1Cl
31.6 | CCc1nnc2n1CCN(C(=O)c1cccc(C(F)(F)F)c1Cl)C2
31.6 | Cc1ccccc1N1CCN(C(C)c2ccc(Cl)cc2Cl)C(=O)C1=O (configuration not stated)
25.1 | Cc1c(N2CCCC2)cccc1N1CCN(Cc2ccc(F)cc2Cl)C(=O)C1=O
25.1 | O=C(c1cccc(C(F)(F)F)c1Cl)N1CCn2c(nnc2-c2ccncc2)C1
20 | CC(C)(C)c1ccccc1N1CCN(Cc2ccc(F)cc2Cl)C(=O)C1=O
20 | COc1ccnc(N2C[C@@H](C(=O)NCc3ccc(Cl)cc3Cl)N(C)C2=O)n1
15.8 | Cc1c(N2CCOCC2)cccc1N1CCN(C(=O)c2cccc(Cl)c2Cl)CC1=O
15.8 | CC(C)Oc1cc(F)ccc1N1CCN(C(=O)c2cccc(Cl)c2Cl)CC1=O
12.6 | O=C(c1ccc(Cl)cc1Cl)N1CCn2c(nnc2-c2ccc(F)cn2)C1
10 | Cc1ccc(N2C[C@@H](C(=O)NCc3cccc(C(F)(F)F)c3Cl)N(C)C2=O)cn1
10 | Cc1c(N2CCCC2)cccc1N1CCN(C(=O)c2cccc(C(F)(F)F)c2Cl)CC1=O
10 | COc1ccc(C)c(N2CCN(Cc3ccc(F)cc3Cl)C(=O)C2=O)c1
7.94 | CN1C(=O)N(c2ccccn2)CC1C(=O)NCc1cccc(C(F)(F)F)c1Cl (configuration not stated)
7.94 | O=C(c1cccc(C(F)(F)F)c1Cl)N1CCN(c2cc(N3CCOCC3)ccc2Cl)C(=O)C1
7.94 | COc1ccc(N2C[C@@H](C(=O)NCc3cccc(C(F)(F)F)c3Cl)N(C)C2=O)cn1
7.94 | CCN1C(=O)CC[C@H]1C(=O)NCc1ccc(F)c(F)c1Cl
5.01 | CN1C(=O)N(c2cncn2C)C[C@H]1C(=O)NCc1cccc(C(F)(F)F)c1Cl
3.98 | N#Cc1cc(F)ccc1N1CCN(C(=O)c2cccc(Cl)c2Cl)CC1=O
2 | CN1C(=O)N(c2ncccc2F)C[C@H]1C(=O)NCc1ccc(Cl)cc1Cl
1.58 | O=C(c1cccc(C(F)(F)F)c1Cl)N1CCn2c(nnc2-c2cscn2)C1
1.58 | CN1C(=O)CC[C@H]1C(=O)NCc1cccc2ccccc12
